Where “and” joins values, the source holds several entries; their conditions need not be identical. Equal entries are not always repeated.
Tests used:
Conditions in all cases: incubation time: 72 h
[1] = test system: MCF-10A; assay: drug sensitivity score (DSS), CellTox Green (DSS (AUC-based score)); higher = stronger drug effect (viability inhibition or cytotoxicity); extreme values may be limits of the assay
How it was run: (§1)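 The area under the fitted dose-response curve was used to calculate the drug sensitivity score. Cells from breast cancer lines were incubated for 72 h in 384-well plates with compound at 5 concentrations spaced 10-fold over a 10,000-fold range specific to each compound. Plates were read for CellTox Green and then CellTiter-Glo, and normalised to 0.1 % DMSO and a positive kill control.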

[2] = test system: HCC1143; assay: as above
How it was run: as §1

[3] = test system: CAL-120; assay: as above
How it was run: as §1

[4] = test system: CAL-85-1; assay: as above
How it was run: as §1

[5] = test system: MDA-MB-468; assay: as above
How it was run: as §1

[6] = test system: Hs578T; assay: as above
How it was run: as §1

[7] = test system: BT-549; assay: as above
How it was run: as §1

[8] = test system: MDA-MB-436; assay: drug sensitivity score (DSS), CellTiter-Blue viability (DSS (AUC-based score)); higher = stronger viability inhibition; extreme values may be limits of the assay
Method: (§2)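 DSRT with the CellTiter-Blue (resazurin reduction) viability readout, fluorescence 560/590 nm, 72 h incubation. Plates were normalised to DMSO and benzethonium chloride controls. DSS is computed from the area under the fitted dose-response curve (5 or 9 concentrations).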

[9] = test system: HCC1143; assay: as above
Method: as §2

[10] = test system: HCC1599; assay: as above
Method: as §2

[11] = test system: MFM-223; assay: as above
Method: as §2

[12] = test system: CAL-120; assay: as above
Method: as §2

[13] = test system: CAL-85-1; assay: as above
Method: as §2

[14] = test system: HCC1937; assay: as above
Method: as §2

[15] = test system: CAL-148; assay: as above
Method: as §2

[16] = test system: CAL-51; assay: as above
Method: as §2

[17] = test system: BT-474; assay: as above
Method: as §2

[18] = test system: DU-4475; assay: as above
Method: as §2

[19] = test system: MDA-MB-231; assay: as above
Method: as §2

[20] = test system: HDQ-P1; assay: as above
Method: as §2

[21] = test system: MDA-MB-453; assay: as above
Method: as §2

[22] = test system: MDA-MB-468; assay: as above
Method: as §2

[23] = test system: SK-BR-3; assay: as above
Method: as §2

[24] = test system: Hs578T; assay: as above
Method: as §2

[25] = test system: BT-549; assay: as above
Method: as §2

| SMILES | drug sensitivity score [1] | drug sensitivity score [2] | drug sensitivity score [3] | drug sensitivity score [4] | drug sensitivity score [5] | drug sensitivity score [6] | drug sensitivity score [7] | drug sensitivity score [8] | drug sensitivity score [9] | drug sensitivity score [10] | drug sensitivity score [11] | drug sensitivity score [12] | drug sensitivity score [13] | drug sensitivity score [14] | drug sensitivity score [15] | drug sensitivity score [16] | drug sensitivity score [17] | drug sensitivity score [18] | drug sensitivity score [19] | drug sensitivity score [20] | drug sensitivity score [21] | drug sensitivity score [22] | drug sensitivity score [23] | drug sensitivity score [24] | drug sensitivity score [25] |
| --- | --- | --- | --- | --- | --- | --- | --- | --- | --- | --- | --- | --- | --- | --- | --- | --- | --- | --- | --- | --- | --- | --- | --- | --- | --- |
| Nc1ncnc2c1c(COc1cccc(Cl)c1)nn2C1CCOCC1 | 0 | 0 | 0 | 0 | 0 | 0.27 | 0 | – | – | – | – | – | – | – | – | – | – | – | – | – | – | – | – | – | – |
| COc1ccc(-c2ccc3c(N4CCOC[C@@H]4C)nc(N4CCOC[C@@H]4C)nc3n2)cc1CO [AZD8055] | 0 | 8.37 | 0 | 0.628 | 2.01 | 0 | 0 | 15.6 | 18.1 | 14.5 | 27.6 | 25 | 23.6 | 21.7 | 28 | 28.8 | 20 | 20.9 | 21.4 | 23.9 | 29 | 16.8 | 28.6 | 23.6 | 22.4 |
| C[C@]12CC[C@H](O)CC1=CC[C@@H]1[C@@H]2CC[C@]2(C)C(c3cccnc3)=CC[C@@H]12 [Abiraterone] | 0 | 0 | 0 | 0 | 0 | 0 | 0 | 0 | 0 | 0 | 0 | 0 | 0 | 0 | 0 | 0 | 0 | 0 | 0 | 0 | 0 | 0 | 0 | 0 | 0 |
| CN(C)CCN1C(=O)c2cccc3cc(N)cc(c23)C1=O [Amonafide] | 0 | 0 | 0 | 0 | 0 | 0 | 0 | 3.57 | 0.876 | 1.04 | 1.69 | 5.69 | 3.78 | 7.96 | 7.32 | 5.33 | 0.749 | 5.45 | 7.74 | 2.28 | 4.67 | 1.26 | 2.78 | 1.1 | 0.97 |
| CC(C)(C#N)c1cc(Cn2cncn2)cc(C(C)(C)C#N)c1 [Anastrozole] | 0 | – | 0 | 0 | 0 | – | 0 | 0 | 0 | 0 | 0 | 0 | 0 | 0 | 0 | 0 | 0 | 0 | 0 | 0 | 0 | 0 | 0 | 0 | 0 |
| CC(C)c1c(C(=O)Nc2ccccc2)c(-c2ccccc2)c(-c2ccc(F)cc2)n1CC[C@@H](O)C[C@@H](O)CC(=O)O [Atorvastatin] | 8.07 | 0 | 1.49 | 0 | 0 | 4.71 | 0 | – | – | – | – | – | – | – | – | – | – | – | – | – | – | – | – | – | – |
| O=C(O)CCCc1ccc(N(CCCl)CCCl)cc1 [Chlorambucil] | 0 | 0 | 0 | 0 | 0 | 0 | 0 | 0 | 0 | 0 | 0 | 0 | 0 | 6.58 | 0 | 0 | 0 | 0 | 0 | 0 | 0 | 4.32 | 0 | 0 | 0 |
| Cn1c(=O)n(-c2ccc(C(C)(C)C#N)cc2)c2c3cc(-c4cnc5ccccc5c4)ccc3ncc21 [Dactolisib] | 0 | 0 | 0 | 2.63 | 0 | 0 | 0 | – | – | – | – | – | – | – | – | – | – | – | – | – | – | – | – | – | – |
| CO[C@H]1C[C@@H]2CC[C@@H](C)[C@@](O)(O2)C(=O)C(=O)N2CCCC[C@H]2C(=O)O[C@H]([C@H](C)C[C@@H]2CC[C@@H](OCCO)[C@H](OC)C2)CC(=O)[C@H](C)/C=C(\C)[C@@H](O)[C@@H](OC)C(=O)[C@H](C)C[C@H](C)/C=C/C=C/C=C/1C [Everolimus] | 0 | 0 | 0 | 0 | 0 | 0 | 8.1 | 0 | – | – | 20 and 19.4 | 19.7 and 24.1 | 15 and 16.7 | – | 23 and 25.5 | 22.7 and 22.2 | 13.2 and 16 | 12.8 and 16.3 | – | – | 29.7 and 31.6 | 6.16 and 13.5 | 16.9 and 20.1 | – | 9.4 and 21.3 |
| CCCCCCCCc1ccc(CCC(N)(CO)CO)cc1 [Fingolimod] | 11.1 | 0 | 0.861 | 7.94 | 6.79 | 1.46 | 1.17 | 8.37 | 0 | 0 | 3.93 | 5.43 | 2.9 | 5.93 | 0 | 0 | 4.46 | 0 | 7.64 | 3.07 | 3.02 | 5.1 | 4.64 | 5.16 | 6.99 |
| Cc1ccc(NC(=O)c2ccc(CN3CCN(C)CC3)cc2)cc1Nc1nccc(-c2cccnc2)n1 [Imatinib] | 0 | 0 | 0 | 0 | 0 | 0.401 | 0 | 0 | 0 | 0 | 0 | 0 | 0 | 0 | 0 | 0 | 0 | 0 | 0 | 0 | – | 0 | 0 | 0 | 0 |
| Nc1nc(OCc2cc(Br)cs2)c2[nH]cnc2n1 [Lomeguatrib] | 0 | 0 | 0 | 0 | 0 | 0 | 0 | – | – | – | – | – | – | – | – | – | – | – | – | – | – | – | – | – | – |
| Cn1c(=O)n(-c2ccc(C(C)(C)C#N)cc2)c2c3cc(-c4cnc5ccccc5c4)ccc3ncc21 [NVP-BEZ235] | – | – | – | – | – | – | – | 5.52 | 15.4 | 8.13 | 19.7 | 20.4 | 16.2 | 14.5 | 19.5 | 20.7 | 12 | 13.5 | 17 | 16.2 | 21.6 | 13.3 | 15.9 | 18.4 | 18.5 |
| COc1ccccc1S(=O)(=O)Nc1ccc2c(c1)CN(C)C(=O)N2 [PFI-1] | 0 | 0 | 0 | 0.65 | 0 | 0 | 0 | – | – | – | – | – | – | – | – | – | – | – | – | – | – | – | – | – | – |
| NS(=O)(=O)OC[C@@H]1C[C@@H](n2ccc3c(N[C@H]4CCc5ccccc54)ncnc32)C[C@@H]1O [Pevonedistat] | 0 | 0 | 0 | 0 | 7.99 | 0.549 | 0 | – | – | – | – | – | – | – | – | – | – | – | – | – | – | – | – | – | – |
| CN(C)C[C@@H]1CCn2cc(c3ccccc32)C2=C(C(=O)NC2=O)c2cn(c3ccccc23)CCO1 [Ruboxistaurin] | 0 | 0 | 0.954 | 7.2 | 6.81 | – | 2.34 | 10.7 | 0 | 3.54 | 6.81 | 1.65 | 0 | 6.14 | 3.06 | 4.59 | 6.23 | 6.32 | 4.1 | 3.47 | 4.14 | 6.34 | 6.94 | 1.19 | 3.74 |
| CC[C@]1(O)C[C@H]2CN(CCc3c([nH]c4ccccc34)[C@@](C(=O)OC)(c3cc4c(cc3OC)N(C=O)[C@H]3[C@@](O)(C(=O)OC)[C@H](OC(C)=O)[C@]5(CC)C=CCN6CC[C@]43[C@@H]65)C2)C1 [Vincristine] | 14.2 | 0 | 1.68 | 14.4 | 22.1 | 8.32 | 9.25 | 18 and 21 | 22.6 and 27.4 | 6.95 and 15.8 | 16.9 and 22.7 | 27.8 and 35.7 | 17.9 and 25 | 23.5 and 35 | 23 and 26.8 | 17.5 and 26.3 | – | 18.9 and 28.9 | 27 and 34.4 | 17.8 and 20.6 | 19.7 and 30.5 | 23.8 and 23.7 | 33.6 and 41.1 | 26.5 and 37.7 | 25.5 and 32 |
